# Source: patent US8030354B2, “Substituted biphenyl GPR40 modulators” (Amgen Inc., priority 2007, dated 2011)
# Molecular target: GPR40 (Homo sapiens, UniProt O14842)
# Assay: Cell-based aequorin assay (CHO cells stably expressing GPR40 and aequorin)
# Parameters: expressed in transfected cells; host or cells: CHO cells stably transfected with GPR40 and aequorin
# Settings: activation of human GPR40, CHO cells, 0.01% HSA
# Method in brief: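 CHO cells stably co-expressing GPR40 and aequorin, loaded with coelenterazine (1 ug/mL, 2 h, room temperature) in H/HBSS with 20 mM Hepes and 0.01% fatty acid-free HSA. Serially diluted compounds added; luminescence recorded over 20 s. EC50 from dose-response of maximum relative light units.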
# GPR40, sequence (O14842 whole entry): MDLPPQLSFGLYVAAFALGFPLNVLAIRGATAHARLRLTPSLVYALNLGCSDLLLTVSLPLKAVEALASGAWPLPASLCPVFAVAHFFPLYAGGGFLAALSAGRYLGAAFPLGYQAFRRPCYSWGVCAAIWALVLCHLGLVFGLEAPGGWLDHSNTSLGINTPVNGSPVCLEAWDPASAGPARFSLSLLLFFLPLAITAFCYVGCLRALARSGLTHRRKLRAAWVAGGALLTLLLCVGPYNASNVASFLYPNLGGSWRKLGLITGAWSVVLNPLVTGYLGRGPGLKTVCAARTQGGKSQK
row,EC50 [nM],Compound
1,1000 to 10000,"COc1ccc(F)c(-c2ccc(COc3cccc([C@H](CC(=O)O)C4CC4)c3F)cc2[C@H](O)C2(C)CC2)c1 (single isomer, unassigned) [Example 83.19]"
2,100 to 1000,"CCCC(CC(=O)O)c1cccc(OCc2ccc(-c3cc(OC)ccc3F)c(OCCCC(C)C)c2)c1 (single isomer, unassigned) [Example 67.16, (3R)-3-(3-(((2′-Fluoro-5′-(methyloxy)-2-((4-methylpentyl)oxy)-1,1′-biphenyl-4-yl)methyl)oxy)phenyl)hexanoic acid or (3S)-3-(3-(((2′-fluoro-5′-(methyloxy)-2-((4-methylpentyl)oxy)-1,1′-biphenyl-4-yl)methyl)oxy)phenyl)hexanoic acid]"
3,100 to 1000,"COc1ccc(F)c(-c2ccc(COc3cccc([C@@H](CC(=O)O)C4CC4)c3)cc2C(OC)C(C)(C)CO)c1 (single isomer, unassigned) [Example 66.41, (S)-3-Cyclopropyl-3-{3-[2′-fluoro-2-(3-hydroxy-1-methoxy-2,2-dimethyl-propyl)-5′-methoxy-biphenyl-4-ylmethoxy]-phenyl}-propionic acid or (R)-3-cyclopropyl-3-{3-[2′-fluoro-2-(3-hydroxy-1-methoxy-2,2-dimethyl-propyl)-5′-methoxy-biphenyl-4-ylmethoxy]-phenyl}-propionic acid]"
4,1000 to 10000,"CCCCOc1ccc(OC)cc1-c1ccc(COc2cccc(CCC(=O)O)c2)cc1C [Example 4, 3-(3-(((2′-(Butyloxy)-2-methyl-5′-(methyloxy)-1,1′-biphenyl-4-yl)methyl)oxy)phenyl)propanoic acid]"
5,100 to 1000,"CCCC(CC(=O)O)c1cccc(OCc2ccc(-c3cc(OC)ccc3F)c(C3CCCC3)c2)c1 (single isomer, unassigned) [Example 67.10, (3R)-3-(3-(((2-Cyclopentyl-2′-fluoro-5′-(methyloxy)-1,1′-biphenyl-4-yl)methyl)oxy)p acid or (3S)-3-(3-(((2-cyclopentyl-2′-fluoro-5′-(methyloxy)-1,1′-biphenyl-4-yl)methyl)oxy)phenyl)hexanoic acid]"
6,100 to 1000,"COc1cccc(-c2ccc(COc3cccc(C(CC(=O)O)C4CC4)c3)cc2C2CCCC2(C)C)c1 (single isomer, unassigned) [Example 66.7]"
7,1000 to 10000,"CCCC(CC(=O)O)c1cccc(OCc2ccc(-c3cccc(OC)n3)cc2)c1 (single isomer, unassigned) [Example 67.22, (3R)-3-(3-(((4-(6-(Methyloxy)-2-pyridinyl)phenyl)methyl)oxy)phenyl)hexanoic acid or (3S)-3-(3-(((4-(6-(methyloxy)-2-pyridinyl)phenyl)methyl)oxy)phenyl)hexanoic acid]"
8,100 to 1000,"COc1cccc(-c2ccc(COc3cccc(CCC(=O)O)c3)cc2C(C)(C)C)c1 [Example 40, 3-(3-(((2-(1,1-Dimethylethyl)-3′-(methyloxy)-1,1′-biphenyl-4-yl)methyl)oxy)phenyl)propanoic acid]"
9,100 to 1000,"CCCC(CC(=O)O)c1cccc(OCc2ccc(-c3cc(OC)ccc3F)c(OCC3CCCCC3)c2)c1 (single isomer, unassigned) [Example 67.17, (3R)-3-(3-(((2-((Cyclohexylmethyl)oxy)-2′-fluoro-5′-(methyloxy)-1,1′-biphenyl-4-yl)methyl)oxy)phenyl)hexanoic acid or (3S)-3-(3-(((2-((cyclohexylmethyl)oxy)-2′-fluoro-5′-(methyloxy)-1,1′-biphenyl-4-yl)methyl)oxy)phenyl)hexanoic acid]"
10,1000 to 10000,"CSc1cccc(-c2ccc(COc3cccc(CCC(=O)O)c3)cc2C(C)(C)C)c1 [Example 61.4, 3-(3-(((2-(1,1-Dimethylethyl)-3′-(methylsulfanyl)-1,1′-biphenyl-4-yl)methyl)oxy)phenyl)propanoic acid]"
11,1000 to 10000,"COc1ccc(F)c(-c2ccc(COc3cccc(C(CC(=O)O)C4CC4)c3)cc2C2CCCC2(C)C)c1 (single isomer, unassigned) [Example 97.2]"
12,1000 to 10000,"CC1(C)CCC=C1c1cc(COc2cccc([C@@H](CC(=O)O)C3CC3)c2)ccc1-c1cc(C(F)(F)F)ccc1F (single isomer, unassigned) [Example 66.53, (3S)-3-Cyclopropyl-3-(3-(((2-(5,5-dimethyl-1-cyclopenten-1-yl)-2′-fluoro-5′-(trifluoromethyl)-1,1′-biphenyl-4-yl)methyl)oxy)phenyl)propanoic acid or (3R)-3-cyclopropyl-3-(3-(((2-(5,5-dimethyl-1-cyclopenten-1-yl)-2′-fluoro-5′-(trifluoromethyl)-1,1′-biphenyl-4-yl)methyl)oxy)phenyl)propanoic acid]"
13,100 to 1000,"COc1cccc(-c2ccc(COc3cccc(C(CC(=O)O)CC4CC4)c3)cc2C2CCCC2(C)C)c1 (single isomer, unassigned) [Example 69.9]"
14,100 to 1000,"COc1ccc(F)c(-c2ccc(COc3cccc(C(C)CC(=O)O)c3)cc2OCC(C)(C)C)c1 (single isomer, unassigned) [Example 64.1, (3R)-3-(3-(((2-((2,2-Dimethylpropyl)oxy)-2′-fluoro-5′-(methyloxy)-1,1′-biphenyl-4-yl)methyl)oxy)phenyl)butanoic acid or (3S)-3-(3-(((2-((2,2-dimethylpropyl)oxy)-2′-fluoro-5′-(methyloxy)-1,1′-biphenyl-4-yl)methyl)oxy)phenyl)butanoic acid]"
15,1000 to 10000,"C=CC(C)(C)[C@@H](O)c1cc(COc2cccc([C@@H](CC(=O)O)C3CC3)c2)ccc1-c1cc(OC)ccc1F (single isomer, unassigned) [Example 66.60]"
16,1000 to 10000,"CCCCOc1cc(COc2cccc([C@H](C)CC(=O)O)c2)ccc1-c1ccc(OC)cc1 (single isomer, unassigned) [Example 21, (3R)-3-(3-(((2-(Butyloxy)-4′-(methyloxy)-1,1′-biphenyl-4-yl)methyl)oxy)phenyl)butanoic acid or (3S)-3-(3-(((2-(butyloxy)-4′-(methyloxy)-1,1′-biphenyl-4-yl)methyl)oxy)phenyl)butanoic acid]"
17,1000 to 10000,"COc1ccc(F)c(-c2ccc(COc3cccc([C@@H](CC(=O)O)C4CC4)c3F)cc2[C@H](O)C2(C)CC2)c1 (single isomer, unassigned) [Example 83.18]"
18,1000 to 10000,"CC1(C)CCC[C@H]1c1cc(COc2cccc([C@H](CC(=O)O)C3CC3)c2F)ccc1-c1cc(C(F)F)ccc1F (single isomer, unassigned) [Example 83.13]"
19,1000 to 10000,"COc1ccc(F)c(-c2ccc(COc3cccc([C@@H](CC(=O)O)C4CC4)c3)cc2C2=CCOCC2)c1 (single isomer, unassigned) [Example 66.46, (3S)-3-Cyclopropyl-3-(3-(((2-(3,6-dihydro-2H-pyran-4-yl)-2′-fluoro-5′-(methyloxy)-1,1′-biphenyl-4-yl)methyl)oxy)phenyl)propanoic acid or (3R)-3-cyclopropyl-3-(3-(((2-(3,6-dihydro-2H-pyran-4-yl)-2′-fluoro-5′-(methyloxy)-1,1′-biphenyl-4-yl)methyl)oxy)phenyl)propanoic acid]"
20,100 to 1000,"COc1ccc(F)c(-c2ccc(COc3cccc(C(C)CC(=O)O)c3)cc2/C=C/C2CCCCC2)c1 (single isomer, unassigned) [Example 64.9, (3R)-3-(3-(((2-((E)-2-Cyclohexylethenyl)-2′-fluoro-5′-(methyloxy)-1,1′-biphenyl-4-yl)methyl)oxy)phenyl)butanoic acid or (3S)-3-(3-(((2-((E)-2-cyclohexylethenyl)-2′-fluoro-5′-(methyloxy)-1,1′-biphenyl-4-yl)methyl)oxy)phenyl)butanoic acid]"
21,100 to 1000,"COc1ccc(F)c(-c2ccc(COc3cccc([C@H](C)CC(=O)O)c3)cc2OC(C)C)c1 (single isomer, unassigned) [Example 31, (3R)-3-(3-(((2′-Fluoro-2-((1-methylethyl)oxy)-5′-(methyloxy)-1,1′-biphenyl-4-yl)methyl)oxy)phenyl)butanoic acid or (3S)-3-(3-(((2′-fluoro-2-((1-methylethyl)oxy)-5′-(methyloxy)-1,1′-biphenyl-4-yl)methyl)oxy)phenyl)butanoic acid]"
22,100 to 1000,"CCC(CC(=O)O)c1cccc(OCc2ccc(-c3cc(OC)ccc3F)c(C3CCCC3(C)C)c2)c1 (single isomer, unassigned) [Example 78.3]"
23,1000 to 10000,"COc1ccc(F)c(-c2ccc(COc3cccc(C(CC(=O)O)CC4CC4)c3)cc2COCC=C(C)C)c1 (single isomer, unassigned) [Example 69.45, (3R)-4-Cyclopropyl-3-(3-(((2′-fluoro-2-(((3-methyl-2-butenyl)oxy)methyl)-5′-(methyloxy)-1,1′-biphenyl-4-yl)methyl)oxy)phenyl)butanoic acid or (3S)-4-cyclopropyl-3-(3-(((2′-fluoro-2-(((3-methyl-2-butenyl)oxy)methyl)-5′-(methyloxy)-1,1′-biphenyl-4-yl)methyl)oxy)phenyl)butanoic acid]"
24,100 to 1000,"COc1ccc(F)c(-c2ccc(COc3cccc(CCC(=O)O)c3)cc2C)c1 [Example 2, 3-(3-(((2′-Fluoro-2-methyl-5′-(methyloxy)-1,1′-biphenyl-4-yl)methyl)oxy)phenyl)propanoic acid]"

row,Compound,EC50 [nM]
1,"COc1ccc(F)c(-c2ccc(COc3cccc([C@@H](CC(=O)O)C4CC4)c3F)cc2[C@H](OC)C2(C)CC2)c1 (single isomer, unassigned) [Example 83.31]",1000 to 10000
2,"COc1cc(-c2ccc(COc3cccc([C@@H](CC(=O)O)C4CC4)c3F)cc2[C@H](OC)C(C)(C)C)c(F)cn1 (single isomer, unassigned) [Example 83.32]",1000 to 10000
